Experimental data from publication PMC8147781, “Discovery of Pyrrolidine-2,3-diones as Novel Inhibitors of P. aeruginosa PBP3” (Antibiotics, 2021).
Values after ≈ are worked out from the molar mass of the structure shown.

How the values were obtained:
[1] = system: K. pneumoniae clinical isolate; assay: MIC broth microdilution, K. pneumoniae; assay type: cell-based; conditions: Klebsiella pneumoniae; Table S3
Protocol: (§1) MIC determination was performed via standard broth microdilution according to the Clinical & Laboratory Standards institute guidelines. Overnight colonies grown on BD-Columbia agar with 5% Sheep Blood (Becton Dickinson, Franklin Lakes, NJ, USA), were diluted in Mueller Hinton Broth 2 cation adjusted (MH+) medium (Thermo Fisher Scientific) to a concentration of 5 × 10^5 CFU/mL. Serial dilutions (1:2) of test compounds were incubated at 37 °C with 5 × 10^4 bacteria in a final volume of 100 μL. Sterile and growth controls in the presence of 1% DMSO and PMBN if the case, and the positive controls, aztreonam (AZT) and tigecycline (TIG) were included in the experiments (Table S4). The MICs were determined visually after 18 h at 37 °C and confirmed by the addition of 10% PrestoBlue (ThermoFisher Scientific) reagent according to the manufacture’s protocol. The fluorescence signal of PrestoBlue reagent was measured at Ex/Em: 550/595 nm after 30 min incubation at 37 °C using at a ClarioStar microplate reader (BMG Labtech). PrestoBlue reduction occurs in the presence of living cells and consequently turns red in colour and is highly fluorescent.

E. coli Neumann = assay: MIC broth microdilution, E. coli; assay type: cell-based; conditions: Escherichia coli; Table S3; read-out: MIC (µM) E. coli Neumann
Protocol: as §1

A. baumannii ATCC15308 = assay: MIC broth microdilution, A. baumannii; assay type: cell-based; conditions: 10 µg/mL PMBN
Protocol: as §1

[2] = system: NRK-52E, epithelial kidney cell line; assay: Cytotoxicity assay (PrestoBlue), NRK52E; conditions: CC50, 72 h
Protocol: (§2) We finally tested the cytotoxicity of the compounds against four eukaryotic cell lines (Table 2 and Table S5), NRK-52E, an epithelial kidney cell line of Rattus norvegicus; Hep G2, an human epithelial liver cell line; and two suspension cell lines: CCRF-CEM, a T lymphoblast; and H9, a cutaneous T lymphocyte cell line.
(§3) Cell lines stored at −120 °C were thawed to 37 °C and resuspended in 10 mL of medium pre-warmed to 37 °C. Cells were pelleted at 300× g for 10 min, and then resuspended in fresh medium, seeded in a T-75 culture flask, and placed in a CO2 incubator (37 °C with 5% CO2 tension). Once the cells reached approximately 70–80% confluency, they were then passaged regularly. The adherent cell lines NRK52E, HepG2 and Huh 7 were washed once with 10 mL DPBS and detached with Trypsin-EDTA for 5 to 7 min and resuspended in 15 mL of the appropriate medium. The suspension cell line CCRF-CEM were diluted and resuspended in fresh RPMI 1640 PAN medium. To calculate the cell density, the cell resuspensions were diluted 1:6 with DPBS. Equal volumes of cell suspension and Trypan Blue were mixed and gently loaded into a haemocytometer (INCYTO, 31056 Republic of Korea). In each experiment, cell concentrations were adjusted to reach a concentration of 2.5 × 10^3 cell/well for NRK52E, 5 × 10^3 cell/well for HepG2, 6.2 × 10^4 cell/well for CCRF-CEM and 3 × 10^3 for H9. The cells were incubated with decreasing concentration of compounds (1 µL in 96% DMSO) for 72 h at 37 °C with 5% CO2 tension. Cycloheximide, a cytotoxic compound that interferes with the translocation step in eukaryotic protein synthesis was used as a control for the experiments. The assay was carried out in flat-bottom, transparent 96-well plates. Cell viability was determined using the PrestoBlue reagent (Thermo Fisher Scientific, Waltham, MA, USA) according to the manufacture’s protocol. First, 10× PrestoBlue was added to each well to obtain a 1× solution, and incubated at 37 °C for 45 min. Then, fluorescence was measured at Ex/Em: 550/595 nm using a ClarioStar microplate reader (BMG Labtech). Cytotoxicity was determined as the percentage of the difference in absorbance of the untreated sample to the treated sample. CC50 was calculated using the values obtained in each concentration using the sigmoidal dose-response by Prism v.8. The media used in each cell line is detailed in Table S6.

S. aureus 133 = assay: MIC broth microdilution, S. aureus; assay type: cell-based; conditions: Staphylococcus aureus, 133; Table S3
Protocol: as §1

[3] = system: Hep G2, epithelial liver cell line; assay: Cytotoxicity assay (PrestoBlue), HepG2; conditions: CC50, 72 h
Protocol: as §2, §3

S. pneumoniae = assay: MIC broth microdilution, S. pneumoniae; assay type: cell-based; conditions: Streptococcus pneumoniae; Table S3; read-out: MIC (µM) S. pneumoniae
Protocol: as §1

B. subtilis 168 = assay: MIC broth microdilution, B. subtilis; assay type: cell-based; conditions: Bacillus subtilis, 168; Table S3
Protocol: as §1

[4] = system: H9, cutaneous T lymphocyte cell line; assay: Cytotoxicity assay (PrestoBlue), H9; conditions: CC50, 72 h
Protocol: as §2, §3

[5] = biological target: T1, PBP3 of P. aeruginosa (PaPBP3) (Pseudomonas aeruginosa, UniProt G3XD46); assay: S2dfluo fluorescence transpeptidase assay; assay type: biochemical; conditions: 300 nM PaPBP3, 30 min preincubation, 37 °C; for IC50: read-out: IC50 Determination with PaPBP3, S2dfluo Assay
T1 construct: P. aeruginosa PBP3 (amino acids 40 to 563); His-tag; made in house; host or cells: E. coli BL21 (DE3) Rosetta, plasmid pET41_PBP-3
Protocol: The assays were carried out in the presence of 5% DMSO and 0.01% Triton X100 to avoid the formation of colloidal structures and adsorption of protein and/or compounds to surfaces. The Z’-factor determined for the assay was 0.73 ± 0.28, indicating the suitability and robustness of the assay for high throughput screening (HTS) (Figure 1B,C).
The activity of soluble ^PaPBP3 (300 nM) was measured in the presence of 0.8 mM S2d, 1 mM D-alanine and 0.5 mM mBBr for 25 min by monitoring the increase in the fluorescence intensity of mBBr at Ex/Em: 394/490 nm using an Infinite M1000 microplate reader (Tecan, Männedorf, Switzerland). To test the effect of inhibitors, 100 µM or 0.8 to 100 µM of compounds diluted in 96% DMSO were incubated for 30 min and 450 rpm with 300 nM soluble PBP3. The incubation period was set to improve the binding of non-covalent inhibitors and 0.01% Triton X100 (Sigma-Aldrich, Taufkirchen, Germany) was added to prevent aggregation of compounds. The enzyme reaction was started by adding a substrate mix of 0.8 mM S2d and […]. The enzyme, compound and substrate mix were mixed 1:1, pipetted with a Liquidator 96 (Melter Toledo, Gießen, Germany) and the fluorescence intensity was directly monitored with an Infinite M1000 microplate reader (Tecan) at Ex/Em: 394/490 nm. The assay was performed in black, flat-bottom 96-well microplates (Greiner Bio-One, Kremsmünster, Austria) at 37 °C in Sorensen Phosphate Buffer (57 mM Na2HPO4 and 10 mM KH2PO4, pH 7.5 + 0.01% Triton X-100). The velocity of the PBP3 reaction was calculated in the presence of each concentration of compound and the velocity values were used to estimate IC50 by sigmoidal nonlinear regression, using Prism v.9 software (San Diego, CA, USA) and the velocity of the reaction at each concentration.

T1 sequence (G3XD46 40-563): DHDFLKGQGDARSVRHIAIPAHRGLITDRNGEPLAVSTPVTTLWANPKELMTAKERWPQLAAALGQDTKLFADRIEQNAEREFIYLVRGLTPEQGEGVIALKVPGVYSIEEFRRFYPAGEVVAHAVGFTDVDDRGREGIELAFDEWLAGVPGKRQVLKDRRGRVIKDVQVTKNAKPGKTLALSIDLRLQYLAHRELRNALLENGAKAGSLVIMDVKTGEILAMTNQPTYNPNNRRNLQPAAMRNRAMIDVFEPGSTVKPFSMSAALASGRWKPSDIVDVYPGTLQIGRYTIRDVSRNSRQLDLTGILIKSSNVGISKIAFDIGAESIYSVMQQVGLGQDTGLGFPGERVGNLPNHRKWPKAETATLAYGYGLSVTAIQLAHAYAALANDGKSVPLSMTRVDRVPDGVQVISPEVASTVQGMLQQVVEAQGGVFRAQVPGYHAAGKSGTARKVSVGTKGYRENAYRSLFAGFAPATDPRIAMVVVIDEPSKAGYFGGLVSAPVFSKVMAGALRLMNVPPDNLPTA

Structure (SMILES)	MIC [1] [µM]	MIC (E. coli Neumann) [µM]	MIC (µM) A. baumanii ATCC15308 (A. baumannii ATCC15308) [µM]	Cytotoxicity effect (µM) Epithelial kidney NRK52E [2] [µM]	MIC (S. aureus 133) [µM]	Cytotoxicity effect (µM) Epithelial liver HepG2 [3] [µM]	MIC (S. pneumoniae) [µM]	MIC (B. subtilis 168) [µM]	Cytotoxicity effect (µM) T-lymphocyte H9 [4] [µM]	IC50 Determination with PaPBP3, S2dfluo Assay [5]	IC50 [5] [µM]
O=C(C1=C(O)C(=O)N(Cc2cscn2)C1c1ccc(Cl)cc1)c1ccc(Br)cc1 (centres unmarked) [Compound 42]	> 100	> 100	> 100	> 100	> 100	> 100	> 100	> 100	> 100	abolished the inhibitory activity	> 100
O=C(C1=C(O)C(=O)N(CCc2cc3ccccc3[nH]2)C1c1ccc(Cl)cc1)c1ccc(Br)cc1 (centres unmarked) [Compound 37]	> 100	> 100	> 100	9 ± 12	6.25 (≈ 3.35 µg/mL)	20 ± 4	50 (≈ 26.8 µg/mL)	3.13 (≈ 1.68 µg/mL)	19 ± 6		16 ± 8
O=C(C1=C(O)C(=O)N(Cc2cc3cnccc3[nH]2)C1c1ccc(Cl)cc1)c1ccc(Br)cc1 (centres unmarked) [Compound 36]	> 100	> 100	> 100	58 ± 3	> 100	1 ± 2	> 100	> 100	48 ± 2		> 100
CCNC1=C(C(=O)c2ccc(Br)cc2)C(c2ccc(Cl)cc2)N(Cc2c[nH]c3ccccc23)C1=O (centres unmarked) [Compound 45]	> 100	> 100	> 100	23 ± 11	6.25 (≈ 3.43 µg/mL)	23 ± 8	25 (≈ 13.7 µg/mL)	> 100	32 ± 10		> 100
CCNC1=C(C(=O)c2ccc(Br)cc2)C(c2ccc(Cl)cc2)N(Cc2cccc(F)c2)C1=O (centres unmarked) [Compound 43, 4-(4-bromobenzoyl)-5-(4-chlorophenyl)-3-(ethylamino)-1-[(3-fluorophenyl)methyl]-5H-pyrrol-2-one]		> 100	> 100	73 ± 9.2	> 100	> 100	> 100	> 100	> 100		> 100
